According to patent US10829520B2, “Beta-hairpin peptidomimetics” (POLYPHOR AG, priority 2015, dated 2020):
*1 amine or outer side, *2 acyl side, *3 side chain or, on linkers, in order; H or OH if unused. Where a SMILES comes first, the peptide text is derived from it. Bridges are numbered along the chain shown (N, C = ends). [ ]: non-standard residue; d: D form. NMeW = CN[C@@H](Cc1c[nH]c2ccccc12)C(=O)O; X1 = CC(C)NC[C@H](N[*:1])C(=O)[*:2]; Cha = N[C@@H](CC1CCCCC1)C(=O)O; Tle = CC(C)(C)[C@H](N)C(=O)O; Nle = CCCC[C@H](N)C(=O)O; Orn = NCCC[C@H](N)C(=O)O; Dab = NCC[C@H](N)C(=O)O; Dap = NC[C@H](N)C(=O)O; Sar = CNCC(=O)O

Experiments:
Type in all cases: cell-based
[1] = tested on: Acinetobacter baumannii 872842; conditions: 872842
[2] = tested on: Acinetobacter baumannii DSM 30008; conditions: DSM 30008
In short: (§1)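 MIC in μg/mL; CLSI microdilution; cation-adjusted Mueller-Hinton II with Polysorbate 80 (0.002%); 10^6 CFU/mL; 35° C, 18-20 h.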

[3] = tested on: Escherichia coli 926415; conditions: 926415
[4] = tested on: Escherichia coli ATCC 25922; conditions: ATCC 25922
In short: as §1

[5] = tested on: Klebsiella pneumoniae 968733; conditions: 968733
[6] = tested on: Klebsiella pneumoniae SSI #3010; conditions: SSI #3010
In short: as §1

[7] = tested on: Pseudomonas aeruginosa ATCC 27853; conditions: ATCC 27853
In short: as §1

[8] = tested on: human red blood cells (hRBC); assay: Hemolysis of human red blood cells; conditions: red cells of human, 1 h, 100 μg/mL
In short: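 Percent hemolysis = OD540 of peptide-treated supernatant relative to the 2.5% Triton X-100 (100%) control, PBS containing 0.001% acetic acid defining 0%. Peptides tested at 100 μg/mL against 20% (v/v) washed human RBC, 1 h, 37 °C, 300 rpm.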

Row | Compound | Acinetobacter baumannii 872842 MIC [1] [µg/mL] | Acinetobacter baumannii DSM 30008 MIC [2] [µg/mL] | Escherichia coli 926415 MIC [3] [µg/mL] | Escherichia coli ATCC 25922 MIC [4] [µg/mL] | Klebsiella pneumoniae 968733 MIC [5] [µg/mL] | Klebsiella pneumoniae SSI #3010 MIC [6] [µg/mL] | Pseudomonas aeruginosa ATCC 27853 MIC [7] [µg/mL] | Hemolysis at 100 μg/mL [8] [%]
1 | CC(=O)N[C@@H](Cc1c[nH]c2ccccc12)C(=O)N[C@H]1CSSC[C@@H](C(=O)N[C@@H](CCCN)C(=O)N[C@H](C(=O)N[C@@H](CCN)C(=O)N[C@@H](CCN)C(=O)N[C@H]2CCNC(=O)[C@H]([C@@H](C)O)NC(=O)[C@H](CCN)NC(=O)[C@H](CCN)NC(=O)[C@H](CC(C)C)NC(=O)[C@@H](Cc3ccccc3)NC(=O)[C@H](CCN)NC2=O)[C@@H](C)O)NC(=O)[C@H](CC2CCCCC2)NC(=O)[C@H](CNC(C)C)NC(=O)[C@H](Cc2c[nH]c3ccccc23)NC(=O)[C@@H]2CCCN2C(=O)[C@H]2CCCN2C(=O)[C@H](CO)NC(=O)[C@H](C)NC(=O)[C@H](C(C)(C)C)NC1=O [Ex. 139] (Ac-WC[Tle]AS[dP]PW[X1][Cha]C[Orn]T[Dab][Dab][Dab][Dab][dF]L[Dab][Dab]T; disulfide 2-11; lactam 16-C) | 2 | 1 | 1 | 2 | 4 | 2 | 2 | 4
2 | CC(C)C[C@@H]1NC(=O)[C@@H](CC(C)C)NC(=O)[C@H](CCN)NC(=O)[C@@H](NC(=O)[C@H](CCN)NC(=O)[C@@H](NC(=O)[C@H](CCN)NC(=O)CN(C)C(=O)[C@@H]2CSSC[C@H](NC(=O)[C@@H](N)Cc3c[nH]c4ccccc34)C(=O)N[C@@H](C(C)(C)C)C(=O)N[C@@H](Cc3ccc(O)cc3)C(=O)N[C@@H](CO)C(=O)N3CCC[C@@H]3C(=O)N3CCC[C@H]3C(=O)N[C@@H](CC(C)C)C(=O)N[C@@H](CN)C(=O)N[C@@H](Cc3ccc(O)cc3)C(=O)N2)[C@@H](C)O)CCNC(=O)[C@H]([C@@H](C)O)NC(=O)[C@H](CCN)NC(=O)[C@H](CCN)NC1=O [Ex. 140] (H-WC[Tle]YS[dP]PL[Dap]YC[Sar][Dab]T[Dab][Dab][Dab][dL]L[Dab][Dab]T; disulfide 2-11; lactam 16-C) | 0.125 | 0.125 | 0.125 | 0.0625 | 1 | 0.0625 | 0.5 | <1
3 | CCCC[C@@H]1NC(=O)[C@@H]2CCCN2C(=O)[C@H]2CCCN2C(=O)[C@H](C)NC(=O)[C@H](CO)NC(=O)[C@H](C(C)C)NC(=O)[C@@H](NC(=O)[C@@H](N)Cc2c[nH]c3ccccc23)CSSC[C@@H](C(=O)N(C)CC(=O)N[C@@H](CCN)C(=O)N[C@H](C(=O)N[C@@H](CCN)C(=O)N[C@H]2CCNC(=O)[C@H]([C@@H](C)O)NC(=O)[C@H](CCN)NC(=O)[C@H](CCN)NC(=O)[C@H](CC(C)C)NC(=O)[C@@H](CC(C)C)NC(=O)[C@H](CCN)NC2=O)[C@@H](C)O)NC(=O)[C@H](Cc2ccc(O)cc2)NC(=O)[C@H](CN)NC1=O [Ex. 141] (H-WCVSA[dP]P[Nle][Dap]YC[Sar][Dab]T[Dab][Dab][Dab][dL]L[Dab][Dab]T; disulfide 2-11; lactam 16-C) | 0.125 | 0.125 | 0.125 | 0.0625 | 2 | 0.125 | 2 | <1
4 | CC(=O)N[C@@H](Cc1c[nH]c2ccccc12)C(=O)N[C@H]1CSSC[C@@H](C(=O)N[C@@H](CCCN)C(=O)N[C@H](C(=O)N[C@@H](CCN)C(=O)N[C@@H](CCN)C(=O)N[C@H]2CCNC(=O)[C@H]([C@@H](C)O)NC(=O)[C@H](CCN)NC(=O)[C@H](CCN)NC(=O)[C@H](CC(C)C)NC(=O)[C@@H](Cc3ccccc3)NC(=O)[C@H](CCN)NC2=O)[C@@H](C)O)NC(=O)[C@H](Cc2ccc(O)cc2)NC(=O)[C@H](CO)NC(=O)[C@H](CC(C)C)NC(=O)[C@@H]2CCCN2C(=O)[C@H]2CCCN2C(=O)[C@H](CN)NC(=O)[C@H](C)NC(=O)[C@H](C(C)(C)C)NC1=O [Ex. 142] (Ac-WC[Tle]A[Dap][dP]PLSYC[Orn]T[Dab][Dab][Dab][Dab][dF]L[Dab][Dab]T; disulfide 2-11; lactam 16-C) | 0.125 | 0.25 | 0.25 | 0.5 | 1 | 0.5 | 0.25 | <1
5 | CN[C@@H](Cc1c[nH]c2ccccc12)C(=O)N[C@H]1CSSC[C@@H](C(=O)N(C)CC(=O)N[C@@H](CCN)C(=O)N[C@H](C(=O)N[C@@H](CCN)C(=O)N[C@H]2CCNC(=O)[C@H]([C@@H](C)O)NC(=O)[C@H](CCN)NC(=O)[C@H](CCN)NC(=O)[C@H](CC(C)C)NC(=O)[C@@H](CC(C)C)NC(=O)[C@H](CCN)NC2=O)[C@@H](C)O)NC(=O)[C@H](Cc2ccc(O)cc2)NC(=O)[C@H](CN)NC(=O)[C@H](CC(C)C)NC(=O)[C@@H]2CCCN2C(=O)[C@H]2CCCN2C(=O)[C@H](Cc2ccc(O)cc2)NC(=O)[C@H](C)NC(=O)[C@H](C(C)C)NC1=O [Ex. 143] (H-[NMeW]CVAY[dP]PL[Dap]YC[Sar][Dab]T[Dab][Dab][Dab][dL]L[Dab][Dab]T; disulfide 2-11; lactam 16-C) | 0.0625 | 0.0625 | 0.0625 | 0.03125 | 0.125 | 0.125 | 0.25 | <1
6 | CC(=O)N[C@@H](Cc1c[nH]c2ccccc12)C(=O)N[C@H]1CSSC[C@@H](C(=O)N[C@@H](CCCN)C(=O)N[C@H](C(=O)N[C@@H](CCN)C(=O)N[C@@H](CCN)C(=O)N[C@H]2CCNC(=O)[C@H]([C@@H](C)O)NC(=O)[C@H](CCN)NC(=O)[C@H](CCN)NC(=O)[C@H](CC(C)C)NC(=O)[C@@H](Cc3ccccc3)NC(=O)[C@H](CCN)NC2=O)[C@@H](C)O)NC(=O)[C@H](Cc2ccc(O)cc2)NC(=O)[C@H](CO)NC(=O)[C@H]([C@@H](C)O)NC(=O)[C@@H]2CCCN2C(=O)[C@H]2CCCN2C(=O)[C@H](Cc2ccc(O)cc2)NC(=O)[C@H](C)NC(=O)[C@H](C(C)(C)C)NC1=O [Ex. 144] (Ac-WC[Tle]AY[dP]PTSYC[Orn]T[Dab][Dab][Dab][Dab][dF]L[Dab][Dab]T; disulfide 2-11; lactam 16-C) | 0.25 | 0.125 | 0.5 | 0.25 | 1 | 0.25 | 0.25 | 4
7 | CC(C)C[C@@H]1NC(=O)[C@@H](NC(=O)[C@@H](N)Cc2c[nH]c3ccccc23)CSSC[C@@H](C(=O)NCC(=O)N[C@@H](CCN)C(=O)N[C@H](C(=O)N[C@@H](CCN)C(=O)N[C@H]2CCNC(=O)[C@H]([C@@H](C)O)NC(=O)[C@H](CCN)NC(=O)[C@H](CCN)NC(=O)[C@H](CC(C)C)NC(=O)[C@@H](CC(C)C)NC(=O)[C@H](CCN)NC2=O)[C@@H](C)O)NC(=O)[C@H](CC(C)C)NC(=O)[C@H](CO)NC(=O)[C@H](Cc2ccc(O)cc2)NC(=O)[C@@H]2CCCN2C(=O)[C@H]2CCCN2C(=O)[C@H]([C@@H](C)O)NC(=O)[C@H](C)NC1=O [Ex. 145] (H-WCLAT[dP]PYSLCG[Dab]T[Dab][Dab][Dab][dL]L[Dab][Dab]T; disulfide 2-11; lactam 16-C) | 0.0625 | 0.03125 | 0.125 | 0.0625 | 0.5 | 0.0625 | 0.5 | 3
